In patent US5059589A, “Glaucoma treatment” (Abbott Laboratories, priority 1990, dated 1991):

Assays:
[1] = tested on: intraocular pressure in rabbits; test: Dose response study of topically administered Compound V and timolol on intraocular pressure of rabbits; assay type: in vivo, rabbit; settings: topical
Protocol: (§1) The antiglaucoma activity of the compounds was tested by measuring the effect on intraocular pressure in rabbits as described by Tinjum, A.M., Acta Ophthalmologica, 50, 677 (1972). Male albino, New Zealand rabbits were placed in restraining devices and the intraocular pressure was measured with an applamatic tonometer. […]

[2] = tested on: intraocular pressure in rabbits; test: Effects of topically administered renin inhibiting compounds on intraocular pressure of rabbits; assay type: in vivo, Male albino, New Zealand rabbits; settings: topical 0.1 ml
Protocol: The antiglaucoma activity of the compounds was tested by measuring the effect on intraocular pressure in rabbits as described by Tinjum, A.M., Acta Ophthalmologica, 50, 677 (1972). Male albino, New Zealand rabbits were placed in restraining devices and the intraocular pressure was measured with an applamatic tonometer. Exactly 0.1 ml of an isotonic saline solution containing a test compound was instilled into the conjuctival sac and the intraocular pressure was measured at 5, 15, 30, 60, 90, 120 and 180 minutes afterwards.

[3] = tested on: intraocular pressure in rabbits; test: Topically administered Compound V alone and in combination with timolol on intraocular pressure of rabbits; assay type: in vivo, rabbit; settings: topical, alone
Protocol: as §1

[4] = 0.05%, 15 minutes after administration
[5] = 0.05%, 30 minutes after administration
[6] = 0.05%, 60 minutes after administration
[7] = 0.03%, 5 minutes after administration
[8] = 0.03%, 15 minutes after administration
[9] = 0.03%, 30 minutes after administration
[10] = 0.03%, 60 minutes after administration
[11] = 0.03%, 90 minutes after administration
[12] = 0.03%, 120 minutes after administration
[13] = 0.03%, 150 minutes after administration
[14] = 0.1% (w/v), 0 minutes after administration
[15] = 0.1% (w/v), 5 minutes after administration
[16] = 0.1% (w/v), 15 minutes after administration
[17] = 0.1% (w/v), 30 minutes after administration
[18] = 0.1% (w/v), 60 minutes after administration
[19] = 0.1% (w/v), 90 minutes after administration
[20] = 0.1% (w/v), 120 minutes after administration
[21] = 0.1% (w/v), 180 minutes after administration

## CC(C)(C)NC[C@H](O)COc1nsnc1N1CCOCC1 [Timolol, reference compound]
[1]; 0.02%, 30 minutes after administration
  Mean Intraocular Pressure in mmHg: 13.9 mmHg
[1]; 0.02%, 120 minutes after administration
  Mean Intraocular Pressure in mmHg: 22.4 mmHg
[1]; 0.02%, 150 minutes after administration
  Mean Intraocular Pressure in mmHg: 19.9 mmHg
[1]; [4]
  Mean Intraocular Pressure in mmHg: 12.8 mmHg
[1]; [5]
  Mean Intraocular Pressure in mmHg: 12.8 mmHg
[1]; [6]
  Mean Intraocular Pressure in mmHg: 12.3 mmHg
[1]; 0.05%, 150 minutes after administration
  Mean Intraocular Pressure in mmHg: 20.3 mmHg
[1]; 0.2%, 5 minutes after administration
  Mean Intraocular Pressure in mmHg: 12.1 mmHg
[1]; 0.2%, 15 minutes after administration
  Mean Intraocular Pressure in mmHg: 12.5 mmHg
[1]; 0.2%, 60 minutes after administration
  Mean Intraocular Pressure in mmHg: 12.8 mmHg
[1]; 0.5%, 5 minutes after administration
  Mean Intraocular Pressure in mmHg: 12.8 mmHg
[1]; 0.5%, 15 minutes after administration
  Mean Intraocular Pressure in mmHg: 12.8 mmHg
[1]; 0.5%, 30 minutes after administration
  Mean Intraocular Pressure in mmHg: 11.0 mmHg
[1]; 0.5%, 60 minutes after administration
  Mean Intraocular Pressure in mmHg: 10.9 mmHg
[2]; 0.5% active substance, 5 minutes after administration
  Mean Intraocular Pressure in mmHg: 12.1 mmHg
[2]; 0.5% active substance, 15 minutes after administration
  Mean Intraocular Pressure in mmHg: 9.9 mmHg
[2]; 0.5% active substance, 30 minutes after administration
  Mean Intraocular Pressure in mmHg: 11.9 mmHg
[2]; 0.5% active substance, 60 minutes after administration
  Mean Intraocular Pressure in mmHg: 10.6 mmHg
[2]; 0.5% active substance, 90 minutes after administration
  Mean Intraocular Pressure in mmHg: 12.4 mmHg
[2]; 0.5% active substance, 120 minutes after administration
  Mean Intraocular Pressure in mmHg: 13.3 mmHg
[3]; 0.05%, 5 minutes after administration
  Mean Intraocular Pressure in mmHg: 10.2 mmHg
[3]; [4]
  Mean Intraocular Pressure in mmHg: 11.0 mmHg
[3]; [5]
  Mean Intraocular Pressure in mmHg: 10.1 mmHg
[3]; [6]
  Mean Intraocular Pressure in mmHg: 9.9 mmHg
[3]; 0.05%, 90 minutes after administration
  Mean Intraocular Pressure in mmHg: 13.9 mmHg

## COc1ccc(CC(NC(=O)CC(C)(C)N)C(=O)NC(Cc2cnc[nH]2)C(=O)N[C@@H](CC2CCCCC2)[C@@H](O)[C@@H](O)CC(C)C)cc1 (stereo partly drawn) [Compound V, H-((beta,beta-dimethyl)-beta Ala)-(4-OCH3)Phe-His amide of 2(S)-amino 1-cyclohexyl 3(R),4(S) dihydroxy-6-methylheptane]
[1]; 0.01%, 5 minutes after administration
  Mean Intraocular Pressure in mmHg: 17.7 mmHg
[1]; 0.01%, 15 minutes after administration
  Mean Intraocular Pressure in mmHg: 16.3 mmHg
[1]; 0.01%, 30 minutes after administration
  Mean Intraocular Pressure in mmHg: 13.7 mmHg
[1]; 0.01%, 60 minutes after administration
  Mean Intraocular Pressure in mmHg: 16.9 mmHg
[1]; 0.01%, 90 minutes after administration
  Mean Intraocular Pressure in mmHg: 15.4 mmHg
[1]; 0.01%, 120 minutes after administration
  Mean Intraocular Pressure in mmHg: 18.2 mmHg
[1]; 0.01%, 150 minutes after administration
  Mean Intraocular Pressure in mmHg: 20.3 mmHg
[1]; 0.01%, CONTROL
  Mean Intraocular Pressure in mmHg: 19.2 mmHg
[1]; [7]
  Mean Intraocular Pressure in mmHg: 13.8 mmHg
[1]; [8]
  Mean Intraocular Pressure in mmHg: 13.3 mmHg
[1]; [9]
  Mean Intraocular Pressure in mmHg: 12.8 mmHg
[1]; [10]
  Mean Intraocular Pressure in mmHg: 13.8 mmHg
[1]; [11]
  Mean Intraocular Pressure in mmHg: 13.8 mmHg
[1]; [12]
  Mean Intraocular Pressure in mmHg: 15.2 mmHg
[1]; [13]
  Mean Intraocular Pressure in mmHg: 16.8 mmHg
[1]; 0.03%, CONTROL
  Mean Intraocular Pressure in mmHg: 19.0 mmHg
[1]; 0.1%, 5 minutes after administration
  Mean Intraocular Pressure in mmHg: 14.1 mmHg
[1]; 0.1%, 15 minutes after administration
  Mean Intraocular Pressure in mmHg: 13.1 mmHg
[1]; 0.1%, 30 minutes after administration
  Mean Intraocular Pressure in mmHg: 11.9 mmHg
[1]; 0.1%, 60 minutes after administration
  Mean Intraocular Pressure in mmHg: 11.3 mmHg
[1]; 0.1%, 90 minutes after administration
  Mean Intraocular Pressure in mmHg: 11.5 mmHg
[1]; 0.1%, 120 minutes after administration
  Mean Intraocular Pressure in mmHg: 17.5 mmHg
[1]; 0.1%, 150 minutes after administration
  Mean Intraocular Pressure in mmHg: 19.0 mmHg
[1]; 0.1%, CONTROL
  Mean Intraocular Pressure in mmHg: 18.7 mmHg
[1]; 0.3%, 5 minutes after administration
  Mean Intraocular Pressure in mmHg: 13.3 mmHg
[1]; 0.3%, 15 minutes after administration
  Mean Intraocular Pressure in mmHg: 12.0 mmHg
[1]; 0.3%, 30 minutes after administration
  Mean Intraocular Pressure in mmHg: 10.9 mmHg
[1]; 0.3%, 60 minutes after administration
  Mean Intraocular Pressure in mmHg: 12.2 mmHg
[1]; 0.3%, 90 minutes after administration
  Mean Intraocular Pressure in mmHg: 12.4 mmHg
[1]; 0.3%, 120 minutes after administration
  Mean Intraocular Pressure in mmHg: 16.0 mmHg
[1]; 0.3%, 150 minutes after administration
  Mean Intraocular Pressure in mmHg: 18.8 mmHg
[1]; 0.3%, CONTROL
  Mean Intraocular Pressure in mmHg: 21.2 mmHg
[3]; [7]
  Mean Intraocular Pressure in mmHg: 10.4 mmHg
[3]; [8]
  Mean Intraocular Pressure in mmHg: 10.3 mmHg
[3]; [9]
  Mean Intraocular Pressure in mmHg: 10.1 mmHg
[3]; [10]
  Mean Intraocular Pressure in mmHg: 10.2 mmHg
[3]; [11]
  Mean Intraocular Pressure in mmHg: 10.4 mmHg
[3]; [12]
  Mean Intraocular Pressure in mmHg: 14.5 mmHg
[3]; [13]
  Mean Intraocular Pressure in mmHg: 17.0 mmHg
[3]; 0.03%, CONTROL
  Mean Intraocular Pressure in mmHg: 17.5 mmHg

## CC(C)(C)OC(=O)NC(Cc1ccccc1)C(=O)NC(Cc1cnc[nH]1)C(=O)NC(CC1CCCCC1)C(O)CSC1CCCCC1 (stereo not drawn) [Compound VI, Boc-Phe-His amide of 3-amino-4 cyclohexyl 1 cyclohexylmercapto-2-hydroxybutane]
[2]; [14]
  Mean Intraocular Pressure in mmHg: 21.0 mmHg
[2]; [15]
  Mean Intraocular Pressure in mmHg: 16.5 mmHg
[2]; [16]
  Mean Intraocular Pressure in mmHg: 16.5 mmHg
[2]; [17]
  Mean Intraocular Pressure in mmHg: 15.2 mmHg
[2]; [18]
  Mean Intraocular Pressure in mmHg: 14.7 mmHg
[2]; [19]
  Mean Intraocular Pressure in mmHg: 21.7 mmHg
[2]; [20]
  Mean Intraocular Pressure in mmHg: 22.4 mmHg
[2]; [21]
  Mean Intraocular Pressure in mmHg: 19.9 mmHg

## CCN1C[C@@H]([C@H](O)[C@H](CC2CCCCC2)NC(=O)[C@H](Cc2cnc[nH]2)NC(=O)[C@@H](CC(=O)N(C)CCOCOCCOC)Cc2ccccc2)OC1=O [Compound IV, (2R)-2-benzyl-3-((2-methoxyethoxy-methoxyethyl)methylaminocarbonyl)propionyl-His amide of (2'S,1'R,5S)-3-ethyl-5-(1'-hydroxy 2'-amino-3'-cyclohexylpropyl) -oxazolidin-2-one]
[2]; [14]
  Mean Intraocular Pressure in mmHg: 18.2 mmHg
[2]; [15]
  Mean Intraocular Pressure in mmHg: 14.5 mmHg
[2]; [16]
  Mean Intraocular Pressure in mmHg: 13.0 mmHg
[2]; [17]
  Mean Intraocular Pressure in mmHg: 13.3 mmHg
[2]; [18]
  Mean Intraocular Pressure in mmHg: 14.2 mmHg
[2]; [19]
  Mean Intraocular Pressure in mmHg: 16.3 mmHg
[2]; [20]
  Mean Intraocular Pressure in mmHg: 14.9 mmHg
[2]; [21]
  Mean Intraocular Pressure in mmHg: 16.2 mmHg

## CC(C)CC(=O)NCC[C@H](O)[C@H](CC1CCCCC1)NC(=O)C(Cc1cnc[nH]1)NC(=O)C(Cc1ccccc1)NC(=O)OC(C)(C)C (some centres unmarked) [Compound VIII]
[2]; [14]
  Mean Intraocular Pressure in mmHg: 19.4 mmHg
[2]; [15]
  Mean Intraocular Pressure in mmHg: 17.0 mmHg
[2]; [16]
  Mean Intraocular Pressure in mmHg: 16.5 mmHg
[2]; [17]
  Mean Intraocular Pressure in mmHg: 15.4 mmHg
[2]; [18]
  Mean Intraocular Pressure in mmHg: 18.4 mmHg
[2]; [19]
  Mean Intraocular Pressure in mmHg: 21.2 mmHg
[2]; [20]
  Mean Intraocular Pressure in mmHg: 20.5 mmHg
[2]; [21]
  Mean Intraocular Pressure in mmHg: 21.9 mmHg
